Source: patent US4636520A, “Antifungal composition employing pyrrolnitrin in combination with an imidazole compound” (Fujisawa Pharmaceutical Co., Ltd., priority 1984, dated 1987)
≈ marks a conversion by molar mass, not a printed value. Read-outs that look alike come from different tables or passages of the source. Blank lines part the entries; values can stand above or below the molecule they belong to.

How the values were obtained:
Assay type in all cases: cell-based
[1] = tested on: Aspergillus oryzae IFO 5239; assay: Antimicrobial test 1 (agar plate MIC), organism f; conditions: IFO5239, 168 h
Procedure: (§1) Pyrrolnitrin (PY) alone, clotrimazole (CL) alone, a 2:1 mixture of PY and CL, a 1:1 mixture of PY and CL and 1:2 mixture of PY and CL were tested for antimicrobial activity in various strains of microorganisms.
f: Aspergillus oryzae IFO 5239
(§2) Composition A: PY (10 mg) was dissolved in 1 ml of ethanol, and the solution is mixed with 9 ml of sterilized water to give a milk-white suspension.
(§3) Composition B: CL (10 mg) was dissolved in 1 ml of N,N-dimethylformamide, and the solution was mixed with 9 ml of sterilized water to give a milk-white suspension.
(§4) Composition C: The above Compositions A and B were mixed together in a volume ratio of 2:1 to give a suspension. […]
(§5) Plates with varied active ingredient concentrations were prepared by admixing each of Compositions A-E prepared in the above manner with Sabouraud agar medium (for test organisms a-f) or Mueller-Hinton medium (for test organism g), followed by appropriate dilution with the medium. These plates were inoculated respectively with each of the test organisms a-g and incubated under the conditions given below, and the minimum inhibitory concentration (MIC; μg/ml) at which the growth of each test organism is inhibited was determined. […]
(§6) The FIC indexes given in the parentheses of Tables 1 and 2 were calculated by using the following formulas. […]

Candida albicans Yu-1200 [2] = assay: Antimicrobial test 1 (agar plate MIC), organism a
Procedure: as §1
(§7) a: Candida albicans Yu-1200
as §2, §3, §4, §5, §6

Candida albicans Yu-1200 [3] = assay: Antimicrobial test 2 (agar plate MIC), organism a
Procedure: (§8) Pyrrolnitrin (PY) alone, clotrimazole (CL) alone, miconazole alone, econazole alone, oxyconazole alone and 1:1 mixtures of PY and CL, PY and miconazole, PY and econazole and PY and oxyconazole were test for antimicrobial activity in various strains of microorganisms.
as §7
(§9) Compositions A was prepared as stated above.
(§10) Composition F, G and H: A milk-white suspension containing 10 mg of miconazole (Composition F), a transparent solution containing 10 mg of econazole (Composition G) and a milk-white suspension containing 10 mg of oxyconazole (Composition H) were respectively prepared in a similar way to that of Composition B.
(§11) Composition I: The above-mentioned Compositions A and F were mixed together in a volume ratio of 1:1 to give a suspension.
(§12) Composition J: The above-mentioned Compositions A and G were mixed together in a volume ratio of 1:1 to give a suspension.
(§13) Composition K: The above-mentioned Compositions A and H were mixed together in a volume ratio of 1:1 to give a suspension.
(§14) Plates with varied active ingredient concentrations were prepared by admixing each of Compositions A and F to K prepared in the above manner with Sabouraud agar medium, followed by appropriate dilution with the medium. These plates were inoculated respectively with each of the test organisms a and d and incubated at 30° C. for 48 hours. The minimum inhibitory concentration (MIC; μg/ml) at which the growth of each test organism is inhibited was determined.
(§15) The FIC indexes given in the parentheses of Tables 1 and 2 were calculated by using the following formulas. [formula]

Candida albicans FP579 = assay: Antimicrobial test 1 (agar plate MIC), organism c
Procedure: as §1
c: Candida albicans FP579
as §2, §3, §4, §5, §6

[4] = tested on: Staphylococcus epidermidis 91; assay: Antimicrobial test 1 (agar plate MIC), organism g
Procedure: as §1
g: Staphylococcus epidermidis 91
as §2, §3, §4, §5, §6

Candida albicans FP578 = assay: Antimicrobial test 1 (agar plate MIC), organism b
Procedure: as §1
b: Candida albicans FP578
as §2, §3, §4, §5, §6

Candida albicans FP580 [5] = assay: Antimicrobial test 1 (agar plate MIC), organism d
Procedure: as §1
(§16) d: Candida albicans FP580
as §2, §3, §4, §5, §6

Candida albicans FP581 = assay: Antimicrobial test 1 (agar plate MIC), organism e
Procedure: as §1
e: Candida albicans FP581
as §2, §3, §4, §5, §6

Candida albicans FP580 [6] = assay: Antimicrobial test 2 (agar plate MIC), organism d
Procedure: as §8, §16, §9, §10, §11, §12, §13, §14, §15

MIC ([1]; Aspergillus oryzae IFO 5239, Sabouraud agar, 30° C., 1 week, read-out: MIC): > 100 µg/mL | MIC (Candida albicans Yu-1200 [2]; YU1200, Candida albicans Yu-1200, Sabouraud agar, 37° C., 24 hours, read-out: MIC): 100 µg/mL (≈ 389 µM) | MIC (Candida albicans Yu-1200 [3]; YU1200, Candida albicans Yu-1200, Sabouraud agar, 30° C., 48 hours, read-out: MIC): 100 µg/mL (≈ 389 µM) | MIC (Candida albicans FP579; Candida albicans FP579, Sabouraud agar, 37° C., 24 hours, read-out: MIC): 25 µg/mL (≈ 97.2 µM) | MIC ([4]; Staphylococcus epidermidis 91, Mueller-Hinton medium, 37° C., 20 hours, read-out: MIC): 100 µg/mL (≈ 389 µM) | MIC (Candida albicans FP578; Candida albicans FP578, Sabouraud agar, 37° C., 24 hours, read-out: MIC): 3.13 µg/mL (≈ 12.2 µM) | MIC (Candida albicans FP580 [5]; Candida albicans FP580, Sabouraud agar, 37° C., 24 hours, read-out: MIC): 1.56 µg/mL (≈ 6.07 µM) | MIC (Candida albicans FP581; Candida albicans FP581, Sabouraud agar, 37° C., 24 hours, read-out: MIC): > 100 µg/mL | MIC (Candida albicans FP580 [6]; Candida albicans FP580, Sabouraud agar, 30° C., 48 hours, read-out: MIC): 0.78 µg/mL (≈ 3.03 µM)
Compound: O=[N+]([O-])c1c(Cl)cccc1-c1c[nH]cc1Cl [Composition A, 3-(2-nitro-3-chlorophenyl)-4-chloropyrrole]

Compound: Clc1ccccc1C(c1ccccc1)(c1ccccc1)n1ccnc1 [Composition B, 1-[(2-chlorophenyl)diphenylmethyl]-1H-imidazole]
MIC ([1]; Aspergillus oryzae): 12.5 µg/mL (≈ 36.2 µM) | MIC (Candida albicans Yu-1200 [2]; Candida albicans, YU1200, 24 h): 6.25 µg/mL (≈ 18.1 µM) | MIC (Candida albicans FP579; Candida albicans, FP579, 24 h): 6.25 µg/mL (≈ 18.1 µM) | MIC ([4]; Staphylococcus epidermidis, 91, 20 h): 25 µg/mL (≈ 72.5 µM) | MIC (Candida albicans FP578; Candida albicans, FP578, 24 h): 6.25 µg/mL (≈ 18.1 µM) | MIC (Candida albicans FP580 [5]; Candida albicans, FP580, 24 h): 6.25 µg/mL (≈ 18.1 µM) | MIC (Candida albicans FP581; Candida albicans, FP581, 24 h): 25 µg/mL (≈ 72.5 µM)

Compound: Clc1ccc(COC(Cn2ccnc2)c2ccc(Cl)cc2Cl)c(Cl)c1 (stereo not shown) [Composition F, 1-[2-(2,4-dichlorophenyl)-2-[(2,4-dichlorophenyl)methoxy]ethyl]-1H-imidazole]
MIC (Candida albicans Yu-1200 [3]; Candida albicans, YU1200, 48 h): 6.25 µg/mL (≈ 15 µM) | MIC (Candida albicans FP580 [6]; Candida albicans, FP580, 48 h): 12.5 µg/mL (≈ 30 µM)

Compound: Clc1ccc(COC(Cn2ccnc2)c2ccc(Cl)cc2Cl)cc1 (stereo not shown) [Composition G, 1-[2-[(4-chlorophenyl)methoxy]-2-(2,4-dichlorophenyl)ethyl]-1H-imidazole]
MIC (Candida albicans Yu-1200 [3]; Candida albicans, YU1200, 48 h): 6.25 µg/mL (≈ 16.4 µM) | MIC (Candida albicans FP580 [6]; Candida albicans, FP580, 48 h): 6.25 µg/mL (≈ 16.4 µM)

Compound: Clc1ccc(C(Cn2ccnc2)=NOCc2ccc(Cl)cc2Cl)cc1 [Composition H]
MIC (Candida albicans Yu-1200 [3]; Candida albicans Yu-1200, Sabouraud agar, 30° C., 48 hours): 25 µg/mL (≈ 63.3 µM) | MIC (Candida albicans FP580 [6]; Candida albicans FP580, Sabouraud agar, 30° C., 48 hours): 25 µg/mL (≈ 63.3 µM)
